Earlier results as cited in patent publication US20060115514A1, “Chelating and binding chemicals to a medical implant, medical device formed, and therapeutic applications” (priority 2004, published 2006).

Legend:
restenosis = conditions: oral administration
[1] = system: neointimal formation after balloon injury; conditions: after balloon injury in rats

In the case of `CO[C@H]1C[C@@H]2CC[C@@H](C)[C@@](O)(O2)C(=O)C(=O)N2CCCC[C@H]2C(=O)O[C@H]([C@H](C)C[C@@H]2CC[C@@H](O)[C@H](OC)C2)CC(=O)[C@H](C)/C=C(\C)[C@@H](O)[C@@H](OC)C(=O)[C@H](C)C[C@H](C)/C=C/C=C/C=C/1C` [sirolimus], the “incidence of adverse events” value (restenosis) is given as “higher incidence of adverse events”.

In the case of `N=C(N)c1ccc2cc(OC(=O)c3ccc(N=C(N)N)cc3)ccc2c1` [FUT-175], the neointimal formation [1] is listed as “inhibits”.
